The values that follow are results of earlier work, collected in patent US20170112856A1, “PHARMACEUTICAL COMPOSITION FOR TREATING CANCER IN AN INDIVIDUAL SUBJECT SUFFERING CANCER” (MA SHEN KAI RUEI CO., LTD., priority 2015, published 2017).

In data set [1] the test system is murine macrophages RAW264.7. Particulars: LPS-induction.
Data set [2] has as its system human HL60 leukemia cells.
Data set [3] deals with human colorectal cancer cells (COLO 205).
The test system of data set [4] is normal intestinal epithelial cells (FHC cells).

For the compound `Cc1cc(O)c2c(c1O)OCO2` [2,3-(methylenedioxy)-6-methyl-benzene-1,4-diol], in data set [1], the “amount of free radicals of nitric oxide” value is reported as “effectively reducing”.
As to `COc1cc(C)c(O)c(OC)c1O` [2,4-dimethoxy-6-methyl-benzene-1,3-diol], in data set [1], the “amount of free radicals of nitric oxide” value was “effectively reducing”.
Regarding `C=C(CC[C@@H](C)[C@H]1CC[C@H]2C3=C(C(=O)C[C@]12C)[C@@]1(C)CCC(=O)[C@@H](C)C1CC3=O)C(C)C(=O)O` (stereo partly drawn) [Zhankuic acid A, 4 α-methylergost-8,24(28)-dien-3,7,11-trion-26-oic acid], the apoptosis entry in data set [2] is on record as “inducing apoptosis”.
With “4-acetyl-Antroquinonol B [Composition 4-acetyl-AQB]”, the “amount of free radicals of nitric oxide” value in data set [1] is “effectively reducing”.
Consider Antroquinonol B [AQB], for which the “amount of free radicals of nitric oxide” value in data set [1] was “effectively reducing”.
For `COc1cc(C)c(OC)c2c1OCO2` [SY-1], the “programmed death of cell” value in data set [3] (COLO 205, higher doses) is recorded as “induce programmed death of cell”. In data set [3] (COLO 205, lower doses), the cell cycle entry is on record as “remain in the G0/G1 phase”. Further, the “impact on normal cells” value in data set [4] is “does not have an impact”.
